From patent publication US7416868B2, “Polyene polyketides, processes for their production and their use as a pharmaceutical” (Thallion Pharmaceuticals, Inc., priority 2003, dated 2008) come the findings set out here.

Converted amounts (≈) assume the structure as drawn.

Assay [1] has as its system A. fumigatus - LSPQ 204305. Kind of assay: Disk diffusion assay, minimum effective concentration (MEC) and zone of inhibition (ZOI). Format: cell-based, Aspergillus fumigatus.
The subject of a further assay is A. flavus - ATCC 204304. The description is as above. In kind it is cell-based, Aspergillus flavus.
The subject of a further assay is C. albicans SC5314. In words: Mouse model of disseminated candidiasis, survival. In kind it is in vivo. To be noted: CD-1 mice infected i.v. with C. albicans SC5314; 1 or 3 mg/kg i.p. once daily for 4 days. The procedure:
Compound 2(a) was provided as a dry powder with an estimated purity of 95+%. Fungizone (amphotericin B desoxycholate, to be used as a comparitor), was also provided as a dry powder with an estimated purity of 95+%. The compound 2(a) and Fungizone were stored as dry powders at −80° C. until the day of administration.
Female mice (species Mus musculus, strain CD-1, Charles River) with body weight range of 22-24 g were used in the study. […] All animal experiments were performed at the Step-Justine Hospital (Montreal, Quebec) according to ethical guidelines of animal experimentation of the ethical committee of the hospital. During the study, dead or apparently sick animals were promptly removed and sick mice were euthanized upon removal from the cage.
The animals were maintained in rooms under controlled conditions of temperature (23±2° C.), humidity (45±5%), photoperiodicity (12 hrs light/12 hrs dark) and air exchange. The animals were housed in polycarbonate cages (4/single cage) equipped to provide food and water. Sterile wood shavings were used for animal bedding and the bedding was replaced every other day. […]
The treatment regimen was repeated once daily for a total of 4 days. […] Moribund animals were scored as non-survivors and euthanized by CO2 inhalation. […]

Assay [2] relates to 60 different human tumor cell lines. Kind of assay: NCI in vitro antiproliferative screen (SRB), GI50. In kind it is cell-based. As for the experimental part: In vitro antipoliferative study of Compound 2a was performed by the National Cancer Institute (National Institutes of Health, Bethesda, Md., USA) against a panel of cancer cell lines in order to determine the concentrations needed to obtain a 50% inhibition of cell proliferation (IC50). The operation of this unique screen utilizes 60 different human tumor cell lines, representing leukemia, melanoma, and cancers of the lung, colon, brain, ovary, breast prostate and kidney. Compound 2(a) was provided as a lyophilized powder with an estimated purity of 90+%. The compound was stored at −20° C. until day of use.
The human tumor cell lines of the cancer-screening panel were grown in RPMI 1640 medium containing 5% fetal bovine serum and 2 mM L-glutamine. For a typical screening experiment, cells were inoculated into 96 well microtiter plates in 100 μl at plating densities ranging from 5000 to 40,000 cells/well depending on the doubling time of individual cell lines (Table 8). […]
Following drug addition, the plates were incubated for an additional 48 hours at 37° C., 5% CO2, 95% air, and 100% relative humidity. […] Bound stain was subsequently solubilized with 10 mM trizma base, and the absorbance was read on an automated plate reader at a wavelength of 515 nm. […]
The growth inhibitory power of compound 2(a) was measured by NCl utilizing the GI50 value, rather than the classical IC50 value. […]

A further assay has as its system Aspergillus species. Kind of assay: Broth microdilution MIC determination, filamentous fungi. A general note: Dilution methods test growth across graded concentrations, often in twofold steps.
The subject of a further assay is Candida species. Kind of assay: Broth microdilution MIC determination (NCCLS M27-A adapted), yeasts.

Description for Aspergillus species: (§1) Test compound preparation: The test article was prepared as 100× stock solutions in DMSO, with concentrations ranging from 3.2 mg/ml to 0.0625 mg/ml (a two-fold dilution series over 10 points). The first dilution (3.2 mg/ml) was prepared by resuspending 0.5 mg of each test article in 156.25 μl of DMSO.
(§2) Inoculum preparation: For fungal strains, the inoculum was prepared as follows. From an overnight culture in Yeast Media broth, cell density was adjusted in 0.85% saline to 0.5 McFarland. This procedure yielded a stock suspension of about 5×10^6 cells/ml. Following thorough vortexing, a working suspension was prepared by diluting the stock 1:50 in RPMI 1640, and then further diluting it 1:20 with RPMI 1640 to obtain the 2× test inoculum (about 5×10^3 cells/ml). For filamentous fungi, the inoculum was prepared as follows. From a spore suspension kept at 4° C., an appropriate dilution in 0.85% saline was made to obtain a final optical density 600 between 0.09-0.11. A working suspension was then prepared by diluting the spore suspension 50 times in RPMI to obtain the 2× test inoculum (about 1×10^5 CFU/ml).
(§3) MIC Determination: The 100× test article solutions were diluted 50 times in RPMI 1640, MH or BHI media and dispensed in a 96 well plate, one concentration per column, 10 columns in total. The 11th column contained RPMI 1640 with 1% DMSO with cells, the 12th column contained 100 μl of RPMI 1640 alone.
(§4) 50 μl of the final cell dilution (yeast, filamentous fungi or bacteria) of each indicator strain was added to each corresponding well of the microplate containing 50 μl of diluted drug or media alone. Assay plates were incubated at 35° C. for up to 72 hrs. MIC readings were determined at 24 and 48 hrs for the Candida and Aspergillus species, and at 48 and 72 hrs for Cryptococcus neoformans. MIC readout for each indicator was determined as the lowest concentration of test compound resulting in total absence of growth.
Description for Candida species: as §1, §2, §3, §4

In the case of `CC(C=CCCC=CC=CC=CC=CC(=O)NC1=C(O)CCC1=O)C(O)C(C)C(O)C=CC=CC=CC=CC=CCC(OC1OC(C)C(O)C(O)C1O)C(C)C(=O)CC(O)CC(O)CC(O)C=CCC(O)CC(O)CC(O)CC(O)C=CCC(O)CC(O)CCCN` (stereo not shown) [Compound 2(a), 56-Amino-15,17,33,35,37,41,43,45,47,51,53-undecahydroxy-14,16,30-trimethyl-31-oxo-29-(3,4,5-trihydroxy-6-methyl-tetrahydro-pyran-2-yloxy)-hexapentaconta-2,4,6,8,12,18,20,22,24,26,38,48-dodecaenoic acid (2-hydroxy-5-oxo-cyclopent-1-enyl)-amide], the “ZOI (zone of inhibition of fungal growth at the MEC)” value amounted to 2.7 mm in assay [1] (Aspergillus fumigatus, at MEC, 24 hours of incubation) and 2.7 mm in the assay with A. flavus - ATCC 204304 (Aspergillus flavus, at MEC, 24 hours of incubation). Further, in assay [1] (ZOI after 24 hours at 35° C.), the “antifungal activity against Aspergillus fumigatus” value is “active”. The “antifungal activity against Aspergillus flavus” value in the assay with A. flavus - ATCC 204304 (ZOI after 24 hours at 35° C.) is reported as “active”. For the same compound, the “increase of median survival time of infected mice” value in the assay on C. albicans SC5314 was found to be 4 fold. Besides, the GI50 level entry in assay [2] (SN12C/renal carcinoma, HOP92/non-small cell lung carcinoma, HCC2998/colon carcinoma) is reported as “nanomolar or picomolar level”. In addition, in assay [2] (all cell lines assayed in the NCI screening panel), the “anticancer activity against human tumor cell lines” value is “effective against all the human tumor cell lines”. The MIC – broadly, the smallest concentration in the dilution series that meets the test's criterion for growth inhibition – against Aspergillus species (24 h, Aspergillus flavus ATCC 204304, 24 hrs) amounted to 4 mg/L (≈ 3.08 µM); in the assay on Aspergillus species (24 h, Aspergillus fumigatus ATCC 204305, 24 hrs), 16 mg/L (≈ 12.3 µM); in the assay with Aspergillus species (48 h, Aspergillus flavus ATCC 204304, 48 hrs) it was 8 mg/L (≈ 6.17 µM); against Aspergillus species (48 h, Aspergillus fumigatus ATCC 204305, 48 hrs) it was 16 mg/L (≈ 12.3 µM); in the assay with Candida species (24 h, Candida albicans ATCC 10231, 24 hrs), 4 mg/L (≈ 3.08 µM); against Candida species (24 h, Candida glabrata LSPQ 0250, 24 hrs), 4 mg/L (≈ 3.08 µM). Besides, the minimum inhibitory concentration (MIC) in the assay on Candida species (24 h, Candida krusei LSPQ 0309, 24 hrs) stood at 8 mg/L (≈ 6.17 µM); against Candida species (24 h, Candida lusitaniae ATCC 200953, 24 hrs), 4 mg/L (≈ 3.08 µM); against Candida species (48 h, Candida albicans ATCC 10231, 48 hrs), 4 mg/L (≈ 3.08 µM); against Candida species (48 h, Candida glabrata LSPQ 0250, 48 hrs), 8 mg/L (≈ 6.17 µM); against Candida species (48 h, Candida krusei LSPQ 0309, 48 hrs) it was 8 mg/L (≈ 6.17 µM); with Candida species (48 h, Candida lusitaniae ATCC 200953, 48 hrs) it was 4 mg/L (≈ 3.08 µM).
